Values of other authors as cited in paper PMC7520961, “Safety evaluation of the interchangeable use of robenacoxib in commercially-available tablets and solution for injection in cats” (BMC Veterinary Research, 2020).

Legend:
humans = settings: in vivo; cited from earlier work
anesthetized cats = settings: cited from earlier work

Row | Structure (SMILES) | adverse oral reaction (humans) | QT interval maximum (anesthetized cats; almokalant infusion) [ms] | lengthening of the QT interval (anesthetized cats; almokalant infusion) | QT interval before lengthening (anesthetized cats; before almokalant effect) [ms]
1 | CS(=O)(=O)c1ccc(C2=C(c3ccccc3)C(=O)OC2)cc1 [rofecoxib] | Oral ulceration | – | – | –
2 | CCC[S+]([O-])CCCN(CC)CC(O)COc1ccc(C#N)cc1 (stereo not shown) [almokalant] | – | 349 ± 8.0 | approximately 45% | 241 ± 6.0
